Assay results from patent US8007782B2, “Combination bacteriolytic therapy for the treatment of tumors” (priority 2003, dated 2011).

Legend:
[1] = Mortality following COBALT; type: in vivo, nude mice; conditions: deaths within one week, pooled xenograft models
Source text: (§1) All animal protocols were designed in accordance with the Guide for the Care and Use of Laboratory Animals (NIH Publication 86-23) and were approved by the Johns Hopkins University Institutional Animal Care and Use Committee. Six to eight week old mice were implanted subcutaneously on one flank with 3 to 6 million cancer cells. Establishment of tumors of 150 to 500 mm3 took 8 to 21 days, depending on the cell type. C. novyi-NT spores (300×106) and anti-microtubule agents were generally administered by a single intravenous injection through the tail vein in a total volume of 300 to 500 ul phosphate-buffered saline (PBS). Quantitative assessment of tumor growth was performed by measuring subcutaneous tumor grafts (major and minor axis) using electronic calipers. Tumor volume was calculated using the equation: length×width2×0.5. Progression free survival was defined as the length of time following treatment before any increase in tumor volume was observed. Mice were considered “cured” if no tumor was evident three months after treatment. Animals were weighed at least twice a week and carefully observed for signs of toxicity every day for the first week following treatment and then twice a week thereafter. At least five mice were used for each treatment arm described in the Experimental Results.
(§2) This toxicity was observed only when the combination of C. novyi-NT spores and the drugs was administered and not with either the bacteria or the drugs alone. […] Though major tumor regressions were common, few mice died as a result of therapy (Table 2) No deaths occurred after treatment with the microtubule stabilizers plus C. novyi-NT, while 4% to 8% of mice treated with microtubule destabilizers plus C. novyi-NT died. The only other toxicity observed was transient weight loss (Table 3). Mice treated with the drugs alone lost ˜5 to 10% of their body weight within 7 days, while weight loss after treatment with C. novyi-NT plus these drugs varied from 8% to 18%. All weights recovered to pre-treatment levels within two weeks.

Weight loss after COBALT = type: in vivo, nude mice; conditions: maximum average weight loss relative to weight one day prior to treatment, HCT116 xenografts
Source text: as §1, §2

[2] = system: HCT116 human colorectal cancer cells; assay: Tumorigenicity assay, HCT116 xenografts in nude mice; type: in vivo; conditions: for Effect with C. novyi-NT / Effect alone: nude mice; for Effect alone: agent alone
Source text: as §1
The timing, route, and dose of agents are critical for the success of any experimental therapy. When two agents are combined, the number of variables that must be tested increases exponentially. To simplify interpretation of the comparisons between various anti-microtubule agents, pilot studies with representative drugs were performed.
Eighteen agents known to interact with microtubules were each tested in this manner in nude mice harboring xenografts of HCT116 human colorectal cancer cells. At least five mice harboring tumors of 150 to 500 mm3 in size were used for each experimental arm. Two classes of responses were noted. One type of response was characterized by a rapid hemorrhagic necrosis, observed only with agents that inhibited microtubule […] (FIG. 1A, B). The other type of response was characterized by a slow regression, observed with agents that stabilized microtubules (FIG. 2A, B).

[3] = system: HuCC-T1 cholangiocarcinoma; assay: Tumorigenicity assay, HuCC-T1 xenografts; type: in vivo, nude mice
Source text: as §1
We next evaluated the responses to COBALT/HTI-286 in other murine tumor models. […]

C. novyi-NT = assay: Quantification of C. novyi-NT in tumors by real-time PCR; type: in vivo, C. novyi-NT in mice bearing HCT116 xenografts; conditions: versus spores without drug; HCT116 xenografts; SD printed +/−0.08 (HTI-286), +/−0.3 (docetaxel)
Procedure: Mice bearing HCT116 xenografts were treated with C. novyi-NT spores with or without HTI-286 (1.7 mg/kg) as described above. Following euthanasia 24-48 hr later, tumors were harvested, weighed, minced, and Dounce-homogenized. Genomic DNA was isolated using the Qiagen Genomic DNA Buffer Set and Genomic-tip 100/G. 25 ng of DNA was used in a PCR using the conditions described in (Vogelstein and Kinzler, 1999) The following primers specific for the C. novyi-NT phospholipase C gene were used: 5′-[…] (SEQ ID NO:1) and 5′-[…] (SEQ ID NO:2). No detectable primer dimers formed and no nonspecific amplification of mouse or xenograft genomic DNA occurred with these primers and PCR conditions. Real-time PCR was performed using an iCycler, and threshold cycle numbers were calculated using the iCycler Optical system interface software (Bio-Rad Lab, Hercules, Calif.). Averages of the threshold cycle number (Ct) of triplicate measurements per tumor were obtained, and three different tumors were studied for each treatment group. The results were expressed as the difference between the Ct of the treated tumor and the Ct of untreated controls, normalized to tumor weight.
Second, we directly tested the size of bacterial populations within tumors by measuring the number of bacteria at various times following intravenous injection of C. novyi-NT spores into mice bearing HCT116 xenografts. […]

[4] = system: tumor blood flow in HCT116 xenografts; assay: Assessment of blood perfusion (Hoechst 33342) in HCT116 xenografts; type: in vivo, mice; conditions: HTI-286 1.7 mg/kg or docetaxel 50 mg/kg iv, 3 and 24 hr after treatment
Procedure: Three or 24 hours after treatment, mice were intravenously injected with Hoechst 33342 (40 mg/kg) and euthanized two minutes later. Tumors were cryosectioned and viewed by fluorescence microscopy after counter-staining with acridine orange (AO). Endothelial cells are stained blue when they have taken up the Hoechst 33342 dye. Adjacent sections were stained with MECA-32 monoclonal antibody, a vascular endothelium-specific marker. Arrows point towards normal blood vessels unaffected by HTI-286 treatment in overlying skin.
Mice bearing HCT116 xenografts of 300 to 500 mm3 were injected intravenously with anti-microtubule agents. At various times thereafter, they were intravenously injected with Hoechst 33342 (40 mg/kg), then euthanized two minutes later by CO2 narcosis. Tumors were fixed in Tissue-Tek OTC compound (Sakura Finetek, Torrance, Calif.) and stored at −80° C. Frozen sections 10 microns in thickness were prepared with a Leica Microsystems cryostat and counterstained with acridine orange, 7.5 ug/ml, in PBS for 5 minutes. […] At least three sections of each of three tumors, representing middle and distal parts of the tumor, were examined under fluorescence microscopy for each agent tested, and representative results are illustrated in the figures. […]

[5] = system: Glucose Transporter-1 (Glut-1); assay: Immunohistochemistry for Glut-1 (hypoxia marker) in HCT116 xenografts; type: in vivo, mice; conditions: HTI-286 1.7 mg/kg or docetaxel 50 mg/kg iv, 6 hr after treatment
Procedure: Mice were euthanized six hours after treatment. Tumors were sectioned and H & E stained. Adjacent sections were stained for Glut-1 expression, a marker for hypoxia. Cells positive for Glut-1 appear brown. Arrows indicate examples of hemorrhage.
Paraffin sections were deparaffinized, incubated with proteinase K (Invitrogen), heated at 95° C. for 20 min in citrate buffer (pH 6), and treated with peroxidase blocking reagent (Dako). Sections were incubated with a monoclonal antibody against Glucose Transporter-1 (Glut-1, Dako) followed by a biotin-conjugated secondary antibody (Pierce). A third layer consisting of HRP-conjugated anti-biotin (DAKO) was followed by diaminobenzidine (Sigma) staining. Sections were counterstained with eosin.
Two independent tests of this hypothesis were performed. First, we directly assessed hypoxia within tumors by staining with an antibody to Glucose Transporter-1 (Glut-1). Glut-1 has been extensively studied and shown to be specifically expressed only in hypoxic regions (Airley et al., 2001).

[6] = 50 mg/kg × 1 (iv) with 3×108 C. novyi-NT spores iv

For `CCC(=O)O[C@H]1C[C@H]2OC[C@@]2(OC(C)=O)[C@H]2[C@H](OC(=O)c3ccccc3)[C@]3(O)C[C@H](OC(=O)[C@H](O)[C@@H](NC(=O)OC(C)(C)C)c4ccco4)C(C)=C([C@@H](O)C(=O)[C@]12C)C3(C)C` [MAC-321, 5β,20-epoxy-1,2α-,4-,7β-,10β-,13α-hexahydroxytax-11-en-9-one 4 acetate 2 benzoate 7 propionate 13-ester with (2R,3S)—N-tertbutoxycarbonyl-3-(2-furyl)isoserine], the “# dead (treatment-related deaths)” value ([1]; drug dose 45.0 mg/kg) was 0, the “# dead (treatment-related deaths)” value ([1]; drug dose 50.0 mg/kg) was 0 and the “# dead (treatment-related deaths)” value ([1]; drug dose 60.0 mg/kg) was 0. The “# dead (treatment-related deaths)” value ([1]; drug dose 70.0 mg/kg) was 0, the “Weight Loss (%)” value (Weight loss after COBALT; drug dose 60.0 mg/kg) was 5.5% and the “Effect with C. novyi-NT” value ([2]; 10 mg/kg × 1 (iv) with 3×108 C. novyi-NT spores iv) was “++ (10% to 50% shrinkage in tumor volume relative to pre-treatment size)”. For the same compound, the “Effect with C. novyi-NT” value ([2]; 45 mg/kg × 1 (iv) with 3×108 C. novyi-NT spores iv) was “++++ (>20% cures)”, the “Effect with C. novyi-NT” value [2, 6] was “++++ (>20% cures)” and the “Effect with C. novyi-NT” value ([2]; 60 mg/kg × 1 (iv) with 3×108 C. novyi-NT spores iv) was “++++ (>20% cures)”. For the same compound, the “Effect with C. novyi-NT” value ([2]; 70 mg/kg × 1 (iv) with 3×108 C. novyi-NT spores iv) was “++++ (>20% cures)”, the Effect alone ([2]; 10 mg/kg × 1 (iv)) was “+” and the Effect alone ([2]; 45 mg/kg × 1 (iv)) was “+++ (>50% shrinkage in tumor volume relative to pre-treatment size)”. For the same compound, the Effect alone ([2]; 50 mg/kg × 1 (iv)) was “+++ (>50% shrinkage in tumor volume relative to pre-treatment size)”, the Effect alone ([2]; 60 mg/kg × 1 (iv)) was “+++ (>50% shrinkage in tumor volume relative to pre-treatment size)” and the Effect alone ([2]; 70 mg/kg × 1 (iv)) was “+++ (>50% shrinkage in tumor volume relative to pre-treatment size)”. The “mice cured (in words)” value ([2]; cured = no tumor evident three months after treatment) was “no mice” and the “mice cured (number of mice)” value [3] was “one of eight”.

With `CC(=O)O[C@@]12CO[C@@H]1C[C@H](O)[C@@]1(C)C(=O)[C@H](O)C3=C(C)[C@@H](OC(=O)[C@H](O)[C@@H](NC(=O)OC(C)(C)C)c4ccccc4)C[C@@](O)([C@@H](OC(=O)c4ccccc4)[C@H]21)C3(C)C` [docetaxel] the “# dead (treatment-related deaths)” value ([1]; drug dose 25.0 mg/kg) was 0, the “# dead (treatment-related deaths)” value ([1]; drug dose 50.0 mg/kg) was 0 and the “# dead (treatment-related deaths)” value ([1]; drug dose 75.0 mg/kg) was 0. The “Weight Loss (%)” value (Weight loss after COBALT; drug dose 50.0 mg/kg) was 11.0%, the “increase in number of C. novyi-NT bacteria in tumor when co-injected with drug” value (C. novyi-NT) was 1.6 fold and the “blood flow to the tumors (Hoechst 33342 labelling)” value [4] was “no observable effects”. The “Effect with C. novyi-NT” value ([2]; 12.5 mg/kg × 1 (iv) with 3×108 C. novyi-NT spores iv) was “++ (10% to 50% shrinkage in tumor volume relative to pre-treatment size)”, the “Effect with C. novyi-NT” value ([2]; 25 mg/kg × 1 (iv) with 3×108 C. novyi-NT spores iv) was “+++ (>50% shrinkage in tumor volume relative to pre-treatment size)” and the “Effect with C. novyi-NT” value [2, 6] was “++++ (>20% cures)”. The “Effect with C. novyi-NT” value ([2]; 75 mg/kg × 1 (iv) with 3×108 C. novyi-NT spores iv) was “++++ (>20% cures)”, the Effect alone ([2]; 12.5 mg/kg × 1 (iv)) was “+” and the Effect alone ([2]; 25 mg/kg × 1 (iv)) was “++ (10% to 50% shrinkage in tumor volume relative to pre-treatment size)”. For the same compound, the Effect alone ([2]; 50 mg/kg × 1 (iv)) was “++++ (>20% cures)”, the Effect alone ([2]; 75 mg/kg × 1 (iv)) was “+++ (>50% shrinkage in tumor volume relative to pre-treatment size)” and the “Glut-1 expression (hypoxia marker) in tumors” value [5] was “No increase”.
